In ChEMBL document CHEMBL1130734, “Design and synthesis of a biotinylated dopamine transporter ligand for the purification and labeling of dopaminergic neurons” (Bioorg Med Chem Lett, 1998) one finds IC50 data, which are given here for one compound.

The target of this assay is Sodium-dependent noradrenaline transporter (Homo sapiens, UniProt P23975). Kind of assay: Compound was tested for its ability to inhibit the uptake of Norepinephrine in Norepinephrine transporter system. In kind it is functional.

Broadly, the IC50 is the concentration at which inhibition is half-maximal.

The structures appear in SMILES notation.

Chain of Sodium-dependent noradrenaline transporter (P23975 whole entry): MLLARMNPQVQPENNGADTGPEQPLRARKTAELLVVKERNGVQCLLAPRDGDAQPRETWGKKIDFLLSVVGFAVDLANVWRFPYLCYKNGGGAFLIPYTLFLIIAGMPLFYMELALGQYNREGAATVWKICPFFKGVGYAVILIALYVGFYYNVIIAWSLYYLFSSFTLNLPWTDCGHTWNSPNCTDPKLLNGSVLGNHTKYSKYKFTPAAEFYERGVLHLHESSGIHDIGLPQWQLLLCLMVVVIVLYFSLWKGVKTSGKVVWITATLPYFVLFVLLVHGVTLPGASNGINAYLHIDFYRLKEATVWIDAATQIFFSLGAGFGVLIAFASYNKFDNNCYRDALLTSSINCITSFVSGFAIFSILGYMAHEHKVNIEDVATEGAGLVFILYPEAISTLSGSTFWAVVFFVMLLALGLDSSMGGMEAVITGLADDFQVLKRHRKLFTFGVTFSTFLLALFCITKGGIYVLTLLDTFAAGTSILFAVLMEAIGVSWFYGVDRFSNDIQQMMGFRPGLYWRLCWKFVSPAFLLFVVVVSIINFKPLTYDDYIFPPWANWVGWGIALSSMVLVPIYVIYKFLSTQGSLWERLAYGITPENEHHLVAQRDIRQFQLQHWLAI

In the case of `c1ccc(CCCN2CCN(CCOC(c3ccccc3)c3ccccc3)CC2)cc1`, the midpoint of inhibition, the IC50, lay at 1260 nM.
